Reference: US12109176B1, “Effect of glycerol on biofilm forming bacteria and fungi that changes the microbes sensitivity to pro and anti-biofilm non-toxic, non-bonded plasma amino acids and amino acid derivatives” (priority 2023, dated 2024)
Entries after “also recorded” stand apart in the source; their conditions may differ.

What was measured:
[1] = test system: fungal biofilm (C. albicans); assay: Fungal biofilm inhibition assay; assay type: cell-based, Candida albicans
Method: (§1) Two types of biofilm assays were performed: an inhibition assay and a disruption assay. The inhibition assay assesses the compound's ability to prevent biofilm development, while the disruption assay assesses the compound's ability to break up an existing mature biofilm.
(§2) All bacterial biofilm solutions were prepared in Tryptic Soy Broth (TSB), supplemented with 1% glucose (henceforth referred to as TSB-G). All subsequent procedures were performed in a manner that maintained sterility. A solution of each amino acid or an amino acid derivative to be tested was prepared in weight to volume concentrations ranging from 0.1-5.0%. Amino acids and amino acid derivatives were also tested in combinations. Compound solutions were homogenized with gentle agitation in the dark (4° C., 24 hours) before use.
(§3) 32 Amino acids and 2 amino acid derivatives of the amino acid serine that occur freely in human blood were tested. […] 31 of the 32 amino acids that were tested were the L-Isomers. Glycine has no stereoisomers. The 2 amino acid derivatives, ethanolamine and phosphoethanolamine were also tested. All biofilm assays were performed using 384-well non-tissue culture-treated polystyrene plates. The fungal species tested are as follows: Candida albicans, Candida guilliermondii, Candida parapsilosis, Candida glabrata, Candida tropicalis and Candida dubliniensis. The bacterial species tested are as follows: Staphylococci (standard wild type and methicillin-resistant strain USA300), Escherichia coli, Pseudomonas aeruginosa and Staphylococcus epidermidis.
(§4) Fungal strains were streaked on Yeast Peptone Dextrose (YPD) agar plates and incubated at 30° C. for 48 hours. A single colony from each strain to be tested was inoculated into YPD broth and grown for 12 hours at 30° C., shaking at 225 rpm. […] The cells were allowed to adhere to the plate for 90 minutes at 37° C. with shaking (350 rpm). […] The plate was further incubated for 24 hours at 37° C. with shaking (350 rpm). Media was carefully aspirated and the biofilm was measured by optical density at 600 nm. […] The cells were allowed to adhere to the plate for 90 minutes at 37° C. with shaking (350 rpm). […] The plate was further incubated for 24 hours at 37° C. with shaking (350 rpm). […] The plate was further incubated for 24 hours at 37° C. with shaking (350 rpm). Media was carefully aspirated, and the biofilm was measured by optical density at 600 nm.

[2] = test system: bacterial (S. aureus) biofilm; assay: Bacterial biofilm inhibition assay; assay type: cell-based, Staphylococcus aureus
Method: as §1, §2, §3
(§5) Bacterial strains were streaked on Blood Agar plates (5% sheep blood in Tryptic Soy Broth) and incubated at 37° C. for 24 hours. A single colony from each strain to be tested was inoculated in a TSB broth and grown for 12 hours, at 37° C. with shaking (225 rpm). For the bacterial biofilm inhibition assays, 1 μL of saturated overnight cell culture was added to either 80 μL of TSB-G, or TSB-G supplemented with the amino acid compound solution to be tested, in a 384-well plate. The cells were allowed to adhere to the plate for 60 minutes at 37° C. without shaking. The media was carefully aspirated and 80 μL of TSB-G, or TSB-G supplemented with the amino acid compound solution was added to the plate. The plate was further incubated for 24 hours at 37° C. without shaking. Media was carefully aspirated and the biofilm was measured by optical density at 600 nm. Eight or twelve replicates were performed for each tested condition and the reported values are normalized to the control (TSB-G media only). For the bacterial biofilm disruption assays, 80 µL of TSB-G was added to the plate, along with 1 μL of overnight cell culture. The cells were allowed to adhere to the plate for 60 minutes at 37° C. with no shaking. The media was carefully aspirated and 80 μL of TSB-G was added to the plate. The plate was further incubated for 24 hours at 37° C. with no shaking. Media was carefully aspirated from the mature biofilm and 80 μL of TSB-G, or TSB-G supplemented with the amino acid to be tested, was gently added to the plate. The plate was further incubated for 24 hours at 37° C. without shaking. Media was aspirated and the biofilm was measured by optical density at 600 nm. Twelve replicates were performed for each tested condition and the reported values are normalized to the control (TSB-G media only).

[3] = test system: bacterial (S. aureus) biofilm; assay: Bacterial biofilm disruption assay; assay type: cell-based, Staphylococcus aureus
Method: as §1, §2, §3, §5

[4] = test system: bacterial biofilm; assay: In vitro testing on bacterial biofilm (inhibition and/or disruption); assay type: cell-based
Method: as §1, §2, §3, §5

[5] = test system: fungal biofilm; assay: In vitro testing on fungal biofilm (inhibition and/or disruption); assay type: cell-based
Method: as §1, §2, §3, §4

[6] = test system: fungal biofilm (C. albicans); assay: Fungal biofilm disruption assay; assay type: cell-based, Candida albicans
Method: as §1, §2, §3, §4

[7] = test system: bacterial (S. aureus) biofilm and fungal biofilm (C. albicans); assay: Biofilm inhibition assay, bacterial and fungal taken together; assay type: cell-based; settings: symbol marks the assay
Method: as §1, §2, §3, §4
as §5, with “plate.” for “plate. The plate was further incubated for 24 hours at 37° C. without shaking. Media was aspirated and the biofilm was measured by optical density at 600 nm. Twelve replicates were performed for each tested condition and the reported values are normalized to the control (TSB-G media only).”

[8] = Table F, in the presence of a sufficient concentration of glycerol
[9] = Table E, in the absence of an infusion of glycerol
[10] = in the presence of a therapeutic concentration of glycerol

| SMILES | Reduce or Inhibit F Biofilm (squares: Inhibition Biofilm Assay) ([1]; Table D, 0.1 to 5.0%) | Reduce or Inhibit F Biofilm (squares: Inhibition Biofilm Assay) [1, 8] | Reduce or Inhibit B Biofilm (dots: Disruption Biofilm Assay) ([3]; Table D, 0.1 to 5.0%) | Reduce or Inhibit B Biofilm (dots: Disruption Biofilm Assay) [3, 8] | effect on bacterial biofilm (in words) ([4]; in vitro testing) | effect on fungal biofilm (in words) ([5]; in vitro testing) | Promote F Biofilm (dots: Disruption Biofilm Assay) [6, 9] | further results |
| --- | --- | --- | --- | --- | --- | --- | --- | --- |
| O=C(O)[C@@H]1C[C@@H](O)CN1 [Hydroxyproline, Trans-4-hydroxy-L-proline] | ▪ (Single square [ie. ▪] signifies little effect on the Inhibition Biofilm Assay (from about 10 to less than 30%)) | ▪ (Single square [ie. ▪] signifies little effect on the Inhibition Biofilm Assay (from about 10 to less than 30%)) | ● (Single dot [ie. ●] signifies little effect on the Disruption Biofilm Assay (from about 10 to less than 30%)) | ● (Single dot [ie. ●] signifies little effect on the Disruption Biofilm Assay (from about 10 to less than 30%)) | antibacterial biofilm effect | antifungal biofilm effects | – | Reduce or Inhibit B Biofilm (squares: Inhibition Biofilm Assay) ([2]; Table D, 0.1 to 5.0%): ▪ (Single square [ie. ▪] signifies little effect on the Inhibition Biofilm Assay (from about 10 to less than 30%)); Reduce or Inhibit B Biofilm (squares: Inhibition Biofilm Assay) [2, 8]: ▪ (Single square [ie. ▪] signifies little effect on the Inhibition Biofilm Assay (from about 10 to less than 30%)) |
| Cn1cncc1C[C@H](N)C(=O)O [3-Methylhistidine, 3-methyl-L-histidine] | – | – | ● (Single dot [ie. ●] signifies little effect on the Disruption Biofilm Assay (from about 10 to less than 30%)) | ● (Single dot [ie. ●] signifies little effect on the Disruption Biofilm Assay (from about 10 to less than 30%)) | antibacterial biofilm effect | promoted fungal biofilm formation | ● (Single dot [ie. ●] signifies little effect on the Disruption Biofilm Assay (from about 10 to less than 30%)) | Promote F Biofilm (squares: Inhibition Biofilm Assay) ([1]; Table D, 0.1 to 5.0%): ▪ (Single square [ie. ▪] signifies little effect on the Inhibition Biofilm Assay (from about 10 to less than 30%)); Promote F Biofilm (squares: Inhibition Biofilm Assay) [1, 9]: ▪ (Single square [ie. ▪] signifies little effect on the Inhibition Biofilm Assay (from about 10 to less than 30%)); Promote F Biofilm (dots: Disruption Biofilm Assay) ([6]; Table D, 0.1 to 5.0%): ● (Single dot [ie. ●] signifies little effect on the Disruption Biofilm Assay (from about 10 to less than 30%)) |
| N[C@@H](CCS)C(=O)O [Homocysteine, L-homocysteine] | – | – | – | – | – | antifungal biofilm effects | – | – |
| NCCO [Ethanolamine, ethanolamine] | ▪ (Single square [ie. ▪] signifies little effect on the Inhibition Biofilm Assay (from about 10 to less than 30%)) | ▪ (Single square [ie. ▪] signifies little effect on the Inhibition Biofilm Assay (from about 10 to less than 30%)) | – | – | – | antifungal biofilm effect | – | – |
| CC(C)[C@H](N)C(=O)O [Valine, L-valine] | – | – | ● (Single dot [ie. ●] signifies little effect on the Disruption Biofilm Assay (from about 10 to less than 30%)) | ● (Single dot [ie. ●] signifies little effect on the Disruption Biofilm Assay (from about 10 to less than 30%)) | anti-bacterial biofilm effect | supported fungal biofilm formation; also recorded: pro-fungal biofilm effect; also recorded: promoted fungal biofilm formation | ● (Single dot [ie. ●] signifies little effect on the Disruption Biofilm Assay (from about 10 to less than 30%)) | effect on bacterial biofilm (in words) [4, 10]: anti-bacterial biofilm effect; effect on bacterial biofilm (in words) ([4]; in the presence of a therapeutic concentration of glycerol, listed as valine): anti-bacterial biofilm effect became dominant; effect on fungal biofilm (in words) [5, 10]: lost its pro-fungal biofilm effect; effect on fungal biofilm (in words) ([5]; in vitro testing, listed as valine): supported the formation of biofilm made by biofilm-forming fungi |
| N[C@@H](COP(=O)(O)O)C(=O)O [Phosphoserine, O-phospho-L-serine] | – | – | ● (Single dot [ie. ●] signifies little effect on the Disruption Biofilm Assay (from about 10 to less than 30%)) | ● (Single dot [ie. ●] signifies little effect on the Disruption Biofilm Assay (from about 10 to less than 30%)) | antibacterial biofilm effect | antifungal biofilm effects | – | Reduce or Inhibit F Biofilm (dots: Disruption Biofilm Assay) ([6]; Table D, 0.1 to 5.0%): ● (Single dot [ie. ●] signifies little effect on the Disruption Biofilm Assay (from about 10 to less than 30%)); Reduce or Inhibit F Biofilm (dots: Disruption Biofilm Assay) [6, 8]: ● (Single dot [ie. ●] signifies little effect on the Disruption Biofilm Assay (from about 10 to less than 30%)); Neutral (square: Inhibition Biofilm Assay) ([7]; Table D, Neutral = no effect on the biofilm): ▪ (Single square [ie. ▪] signifies little effect on the Inhibition Biofilm Assay (from about 10 to less than 30%)); Neutral (square: Inhibition Biofilm Assay) [7, 9]: ▪ (Single square [ie. ▪] signifies little effect on the Inhibition Biofilm Assay (from about 10 to less than 30%)); Neutral (square: Inhibition Biofilm Assay) [7, 8]: ▪ (Single square [ie. ▪] signifies little effect on the Inhibition Biofilm Assay (from about 10 to less than 30%)) |
